Source: the supplement of paper PMC8024199
± gives the standard deviation of the averaged measurements.

Assays:
Experiment in all cases: drug sensitivity score (DSS) (DSS score); higher = more sensitive (stronger growth inhibition); extreme values may be limits of the assay
[1] = system: Ba/F3 P210-BCR-ABL1 RUNX1-/- (mouse)
Method in brief: (§1)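 Mouse Ba/F3 cells, either CRISPR/Cas9-edited at a target exon or edited-control clones, were screened against a 528-compound library on pre-printed 384-well plates. Each compound was tested at five concentrations across a 10,000-fold range, with 10,000 cells per well in RPMI with 10% FBS for 72 h at 37 °C and 5% CO2. CellTiter-Glo luminescence was scaled between vehicle and positive-control wells, and each dose-response was summarised as a drug sensitivity score. Scores were averaged over two replicates.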

[2] = system: Ba/F3 P210-BCR-ABL1 RUNX1-/mut (mouse)
Method in brief: as §1

[3] = system: Ba/F3 P210-BCR-ABL1 RUNX1wt/wt control (mouse)
Method in brief: as §1

Row | SMILES | drug sensitivity score [1] | drug sensitivity score [2] | drug sensitivity score [3]
1 | CC(C)(C)c1nc(-c2cccc(NS(=O)(=O)c3c(F)cccc3F)c2F)c(-c2ccnc(N)n2)s1 [Dabrafenib] | 2.6 ± 0.85 | 0.05 ± 0.071 | 2.2 ± 0.42
2 | COc1ccc(COc2cc3oc(=O)c4cc(C(C)O)ccc4c3cc2OC)cc1 (stereo unspecified) [Palomid-529] | 0.05 ± 0.071 | 1.7 ± 2.4 | 0.4 ± 0.42
3 | Nc1cc(F)ccc1NC(=O)/C=C/c1cnn(C/C=C/c2ccccc2)c1 [RGFP966] | 4.8 ± 1.1 | 4.25 ± 0.78 | 1.3 ± 0.28
4 | C[C@H]1Oc2cc(cnc2N)-c2c(nn(C)c2C#N)CN(C)C(=O)c2ccc(F)cc21 | 0.5 ± 0.71 | 2.2 ± 3.1 | 0
5 | C[C@@H]1COCCN1c1cc(C2([S@](C)(=N)=O)CC2)nc(-c2cc[nH]c3nccc2-3)n1 [AZD6738] | 20.1 ± 1.4 | 19.2 ± 0.71 | 18 ± 0.57
6 | Cc1cc(Nc2cc(CN3CCOCC3)c3nc(C)c(Cc4ccc(Cl)cc4F)n3n2)n[nH]1 [Gandotinib] | 4.8 ± 0.71 | 4.9 ± 1.6 | 2.35 ± 0.21
7 | CC(C)n1cnc2c(NCCc3ccc(O)cc3)nc(-c3csc4ccccc34)nc21 [StemRegenin 1] | 3.45 ± 2.9 | 3.05 ± 3.9 | 0.8 ± 0.28
8 | O=C(O)c1ccc(-c2c[nH]c3ncc(-c4ccccc4)cc23)cc1C1CCCC1 | 2.8 ± 0.57 | 2.5 ± 0.28 | 0.85 ± 0.35
9 | CC1(C)OCCn2c1nc1c(N3CCOCC3)nc(-c3cnc(N)nc3)nc12 [GDC-0084] | 9.3 ± 0.14 | 10.3 ± 0.85 | 4.8
10 | COc1cc2ncnc(Oc3cccc(NC(=O)Nc4cc(C(C)(C)C(F)(F)F)on4)c3)c2cc1OC | 15.8 ± 22 | 13.2 ± 19 | 21.6 ± 0.49
11 | COc1cc2c(Nc3ccc(Cl)c(Cl)c3F)ncnc2cc1OC[C@@H]1C[C@@H]2CN(C)C[C@@H]2C1 [Tesevatinib] | 0.55 ± 0.49 | 0.9 ± 1.3 | 0
12 | CCc1c(C(=O)C(N)=O)c2c(OCC(=O)O)cccc2n1Cc1ccccc1 [Varespladib] | 0 | 0.65 ± 0.92 | 0
13 | CCn1c(=O)c(-c2ccc(Cl)cc2Cl)cc2cnc(Nc3ccc(N4CCNCC4)c(F)c3)nc21 [FRAX486] | 23.2 ± 1.2 | 16.4 ± 0.42 | 8.95 ± 0.64
14 | Cc1sc2c(c1C)C(c1ccc(Cl)cc1)=N[C@@H](CC(=O)Nc1ccc(OCCOCCOCCOCCNc3cccc4c3C(=O)N(C3CCC(=O)NC3=O)C4=O)cc1)c1nnc(C)n1-2 (stereo partly specified) [ARV-825] | 19.8 ± 0.14 | 18.7 ± 3.1 | 17.9 ± 0.78
15 | CNC(=O)c1ccccc1Nc1nc(Nc2ccc3c(c2OC)CCC[C@H](N2CCN(CCO)CC2)C3)ncc1Cl | 8.75 ± 0.21 | 8.65 ± 0.21 | 8 ± 0.14
16 | Cc1ccc(C(=O)N(CCCN)[C@@H](c2oc3cc(Cl)ccc3c(=O)c2Cc2ccccc2)C(C)C)cc1 | 9.5 ± 6.1 | 6.65 ± 4.7 | 1.9 ± 0.14
17 | COCCNCc1ccc(-c2cc3nccc(Oc4ccc(NC(=O)C5(C(=O)Nc6ccc(F)cc6)CC5)cc4F)c3s2)nc1 [Sitravatinib] | 8.95 ± 0.35 | 4.6 ± 0.71 | 0
18 | Cc1cc(OCc2nnc(SC3CCCC3)n2-c2cccnc2)ccc1-c1ccc(S(C)(=O)=O)cc1 [NMS-873] | 16.3 ± 1.6 | 14.7 ± 1.1 | 22.2 ± 0.71
19 | CCCc1cc(C)[nH]c(=O)c1CNC(=O)c1cc(-c2ccnc(N3CCN(C)CC3)c2)cc2c1cnn2C(C)C [GSK343] | 0.75 ± 0.78 | 1.05 ± 1.5 | 0
20 | CCN(CC)CCN(Cc1ccc(-c2ccc(C(F)(F)F)cc2)cc1)C(=O)Cn1c(SCc2ccc(F)cc2)nc(=O)c2c1CCC2 [Darapladib] | 1.9 ± 0.14 | 2.65 ± 3.2 | 0
21 | CC#CC(=O)N1CC[C@@H](n2c(=O)n(-c3ccc(Oc4ccccc4)cc3)c3c(N)ncnc32)C1 [Tirabrutinib] | 0.85 ± 0.92 | 0.65 ± 0.78 | 0
22 | C=CC(=O)N1CCC(Oc2cc3c(Nc4ccc(Cl)c(Cl)c4F)ncnc3cc2OC)CC1 [Poziotinib] | 0 | 0 | 0
23 | CNC(=O)c1nn(C)c2c1C(C)(C)Cc1cnc(Nc3ccc(N4CCN(C)CC4)cc3)nc1-2 [Milciclib] | 20.9 ± 0.78 | 14.7 ± 0.85 | 10.8 ± 0.71
24 | Nc1nc2cc(-c3ccc4ncc(C(=O)N5CCOCC5)n4c3)ccc2o1 [Serabelisib] | 1.5 ± 1.4 | 2.5 ± 3.5 | 0

Row | SMILES | drug sensitivity score [1] | drug sensitivity score [2] | drug sensitivity score [3]
25 | CC[C@H](CO)Nc1nc(NCc2ccccc2)c2ncn(C(C)C)c2n1 [Seliciclib] | 1.3 ± 0.14 | 0.4 ± 0.57 | 0
26 | C[C@H]1CNCCCN1S(=O)(=O)c1cccc2cncc(F)c12 [Ripasudil] | 0 | 0 | 0
27 | N#CC1(c2ccc(NC(=O)c3cccnc3NCc3ccncc3)cc2)CCCC1 [Apatinib] | 0.4 ± 0.57 | 0 | 0
28 | C1=N/C2=N/c3ccc(OCCN4CCCC4)c(c3)COC/C=C/COCc3cccc(c3)C(=C1)N2 [Pacritinib] | 13.8 ± 1.6 | 10.8 ± 2.6 | 7 ± 0.14
29 | COc1cc(N2CCC(N3CCN(C)CC3)CC2)ccc1Nc1ncc(Cl)c(Nc2ccccc2P(C)(C)=O)n1 [Brigatinib] | 4.95 ± 0.35 | 2.55 ± 3.6 | 0.1 ± 0.14
30 | CN(C)Cc1c(C(=O)NCCOc2ccc(C(=O)NO)cc2)oc2ccccc12 [Abexinostat] | 24.4 ± 1.3 | 23.2 ± 2.4 | 18.7 ± 0.28
31 | COc1cc2c(Oc3ccc4[nH]c(C)cc4c3F)ncnc2cc1OCCCN1CCCC1 [Cediranib] | 0 | 0 | 0
32 | C[C@@H](Oc1cc(-n2cnc3ccc(CN4CCN(C)CC4)cc32)sc1C(N)=O)c1ccccc1C(F)(F)F | 22.2 ± 1.5 | 20.6 ± 2.3 | 15.8
33 | Cc1nc(NC(=O)N2CCC[C@H]2C(N)=O)sc1-c1ccnc(C(C)(C)C(F)(F)F)c1 [Alpelisib] | 2.5 ± 0.57 | 3 ± 1.8 | 0.75 ± 1.1
34 | CN1CCC(CNc2ccc3ncc(-c4cccc(OC(F)(F)F)c4)n3n2)CC1 [SGI-1776] | 10.1 ± 0.71 | 9.65 ± 2.2 | 5.2 ± 0.14
35 | C[C@@H]1C=C2C(=O)O[C@@H]3CC[C@H](C1)[C@]23O [Galiellalactone] | 12 ± 3.1 | 9.7 ± 4.1 | 5.1
36 | Cc1cnc(-c2ccccc2C(C)C)nc1NCc1ccc(-n2ccnn2)cc1 [ML323] | 4.4 ± 1.6 | 3.35 ± 2.9 | 1.25 ± 0.071
37 | C[C@@H]1CN(Cc2ccc(F)cc2)[C@@H](C)CN1C(=O)c1cc2c(C(=O)C(=O)N(C)C)cn(C)c2cc1Cl [Talmapimod] | 0.25 ± 0.35 | 0.1 ± 0.14 | 0
38 | CCCCc1nc2cc(/C=C/C(=O)NO)ccc2n1CCN(CC)CC [Pracinostat] | 20.7 ± 0.57 | 19.4 ± 0.35 | 17.4 ± 0.49
39 | CN1CC[C@@H](NC(=O)Nc2ccc(C#N)cc2)C[C@@H]1c1nc2ccccc2[nH]1 [Glasdegib] | 0 | 0 | 0.05 ± 0.071
40 | CNc1ncc2cc(-c3cc(NC(=O)NCCC(C)(C)C)c(F)cc3C)c(C)nc2n1 | 22.3 ± 0.28 | 15.6 ± 0.64 | 9.45 ± 0.21
41 | FC(F)c1nc2ccccc2n1-c1nc(N2CCOCC2)nc(N2CCOCC2)n1 [ZSTK474] | 9.85 ± 2.6 | 9.75 ± 5.9 | 5.3 ± 0.85
42 | O=c1[nH]c(=O)n([C@H]2C[C@H](O)[C@@H](CO)O2)cc1C(F)(F)F [Trifluridine] | 15.5 ± 0.14 | 14.6 ± 0.85 | 8.45 ± 0.21
43 | CCc1cc2c(cc1N1CCC(N3CCOCC3)CC1)C(C)(C)c1[nH]c3cc(C#N)ccc3c1C2=O [Alectinib] | 1.05 ± 0.35 | 0.7 ± 0.99 | 0
44 | C=CC(=O)Nc1cccc(Nc2nc(Nc3ccc(N4CCN(C(C)=O)CC4)cc3OC)ncc2C(F)(F)F)c1 [Rociletinib] | 8.6 ± 1.6 | 7.45 ± 0.071 | 4.4 ± 0.42
45 | CC(C)c1c(C(=O)Nc2ccccc2)c(-c2ccccc2)c(-c2ccc(F)cc2)n1CC[C@@H](O)C[C@@H](O)CC(=O)O [Atorvastatin] | 0.65 ± 0.92 | 0.1 ± 0.14 | 0
46 | Oc1ccc2c(c1)CC[C@H](c1ccccc1)[C@@H]2c1ccc(OCCN2CCCC2)cc1 [Lasofoxifene] | 0.15 ± 0.21 | 0.65 ± 0.92 | 0
47 | CCN(CC)CCNC(=O)c1c(C)[nH]c(/C=C2\C(=O)Nc3ccc(-c4csc(-c5ccccc5)n4)cc32)c1C [Amcasertib] | 5.95 ± 1.6 | 5.35 ± 7.6 | 0
